Experimental findings from ChEMBL document CHEMBL1128537, “The squalestatins: synthesis and biological activity of some C3-modified analogues; replacement of a carboxylic acid or methyl ester with an isoelectronic heterocyclic functionality” (J Med Chem, 1995) are described below.

In this test the target is T1, Squalene synthase (Rattus norvegicus, UniProt Q02769).
T1 sequence (Q02769 whole entry): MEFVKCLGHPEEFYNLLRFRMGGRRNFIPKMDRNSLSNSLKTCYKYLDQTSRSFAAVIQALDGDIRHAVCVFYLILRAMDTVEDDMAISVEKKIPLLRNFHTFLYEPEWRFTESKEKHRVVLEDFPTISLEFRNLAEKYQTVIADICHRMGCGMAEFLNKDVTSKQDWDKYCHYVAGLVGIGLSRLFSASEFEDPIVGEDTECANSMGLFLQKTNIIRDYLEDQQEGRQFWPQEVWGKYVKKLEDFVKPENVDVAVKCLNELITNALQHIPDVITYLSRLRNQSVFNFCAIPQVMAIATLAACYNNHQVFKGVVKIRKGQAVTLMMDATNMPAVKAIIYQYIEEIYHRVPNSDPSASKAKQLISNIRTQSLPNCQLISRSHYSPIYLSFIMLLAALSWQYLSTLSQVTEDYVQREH
Kind of test: In vitro for inhibitory activity against Squalene synthase in rat.

Structures are written as SMILES.

Usually IC50 stands for the concentration that inhibits the measured activity by half. A high value points to weaker potency in that assay.

Regarding `C=C(CC[C@]12O[C@H](c3nnn(C)n3)[C@@](O)(C(=O)O)[C@](C(=O)O)(O1)[C@H](O)[C@H]2O)[C@@H](C(C)=O)[C@H](C)Cc1ccccc1`, inhibition was half-maximal at 156 nM (IC50).

`C=C(CC[C@]12O[C@H](C(=O)OC)[C@@](O)(C(=O)O)[C@](C(=O)O)(O1)[C@H](O)[C@H]2O)[C@@H](C(C)=O)[C@H](C)Cc1ccccc1`: the midpoint of inhibition, the IC50, lay at 220 nM. The same measure for `C=C(CC[C@]12O[C@H](c3nc(C)no3)[C@@](O)(C(=O)O)[C@](C(=O)O)(O1)[C@H](O)[C@H]2O)[C@@H](C(C)=O)[C@H](C)Cc1ccccc1`: 310 nM; for `C=C(CC[C@]12O[C@H](c3nnnn3C)[C@@](O)(C(=O)O)[C@](C(=O)O)(O1)[C@H](O)[C@H]2O)[C@@H](C(C)=O)[C@H](C)Cc1ccccc1`: 442 nM. In turn, `C=C(CC[C@]12O[C@H](c3nnn[nH]3)[C@@](O)(C(=O)O)[C@](C(=O)O)(O1)[C@H](O)[C@H]2O)[C@@H](C(C)=O)[C@H](C)Cc1ccccc1` registered an IC50 of 25 nM.

For `C=C(CC[C@]12O[C@H](c3csc(C)n3)[C@@](O)(C(=O)O)[C@](C(=O)O)(O1)[C@H](OC(=O)/C=C/[C@@H](C)C[C@@H](C)CC)[C@H]2O)[C@@H](C(C)=O)[C@H](C)Cc1ccccc1`, the IC50 stood at 357 nM. With `C=C(CC[C@]12O[C@H](c3csc(C)n3)[C@@](O)(C(=O)O)[C@](C(=O)O)(O1)[C@H](O)[C@H]2O)[C@@H](C(C)=O)[C@H](C)Cc1ccccc1` the figure was 2880 nM; with `C=C(CC[C@]12O[C@H](c3cscn3)[C@@](O)(C(=O)O)[C@](C(=O)O)(O1)[C@H](O)[C@H]2O)[C@@H](C(C)=O)[C@H](C)Cc1ccccc1`, 505 nM; with `C=C(CC[C@]12O[C@H](c3n[nH]c(=S)n3C)[C@@](O)(C(=O)O)[C@](C(=O)O)(O1)[C@H](O)[C@H]2O)[C@@H](C(C)=O)[C@H](C)Cc1ccccc1`, 1940 nM. The same measure for `C=C(CC[C@]12O[C@H](c3nnc(NC)o3)[C@@](O)(C(=O)O)[C@](C(=O)O)(O1)[C@H](OC(=O)/C=C/[C@@H](C)C[C@@H](C)CC)[C@H]2O)[C@@H](C(C)=O)[C@H](C)Cc1ccccc1`: 10 nM; for `C=C(CC[C@]12O[C@H](c3cscn3)[C@@](O)(C(=O)O)[C@](C(=O)O)(O1)[C@H](OC(=O)/C=C/[C@@H](C)C[C@@H](C)CC)[C@H]2O)[C@@H](C(C)=O)[C@H](C)Cc1ccccc1`: 92 nM.

The molecule `C=C(CC[C@]12O[C@H](c3csc(NC)n3)[C@@](O)(C(=O)O)[C@](C(=O)O)(O1)[C@H](O)[C@H]2O)[C@@H](C(C)=O)[C@H](C)Cc1ccccc1` displayed an IC50 of 1180 nM. With `C=C(CC[C@]12O[C@H](c3nnc(C)[nH]3)[C@@](O)(C(=O)O)[C@](C(=O)O)(O1)[C@H](O)[C@H]2O)[C@@H](C(C)=O)[C@H](C)Cc1ccccc1` the figure was 312 nM; with `C=C(CC[C@]12O[C@H](c3nc(C)no3)[C@@](O)(C(=O)O)[C@](C(=O)O)(O1)[C@H](OC(=O)/C=C/[C@@H](C)C[C@@H](C)CC)[C@H]2O)[C@@H](C(C)=O)[C@H](C)Cc1ccccc1`, 72 nM; with `C=C(CC[C@]12O[C@H](c3nnn[nH]3)[C@@](O)(C(=O)O)[C@](C(=O)O)(O1)[C@H](OC(=O)/C=C/[C@@H](C)C[C@@H](C)CC)[C@H]2O)[C@@H](C(C)=O)[C@H](C)Cc1ccccc1`, 4 nM. With `C=C(CC[C@]12O[C@H](C(=O)OC)[C@@](O)(C(=O)O)[C@](C(=O)O)(O1)[C@H](OC(=O)/C=C/[C@@H](C)C[C@@H](C)CC)[C@H]2O)[C@@H](C(C)=O)[C@H](C)Cc1ccccc1` the figure was 7 nM; with `C=C(CC[C@]12O[C@H](c3nnn(C)n3)[C@@](O)(C(=O)O)[C@](C(=O)O)(O1)[C@H](OC(=O)/C=C/[C@@H](C)C[C@@H](C)CC)[C@H]2O)[C@@H](C(C)=O)[C@H](C)Cc1ccccc1`, 43 nM. With `C=C(CC[C@]12O[C@H](c3csc(NC)n3)[C@@](O)(C(=O)O)[C@](C(=O)O)(O1)[C@H](OC(=O)/C=C/[C@@H](C)C[C@@H](C)CC)[C@H]2O)[C@@H](C(C)=O)[C@H](C)Cc1ccccc1` the figure was 146 nM. `C=C(CC[C@]12O[C@H](c3nnnn3C)[C@@](O)(C(=O)O)[C@](C(=O)O)(O1)[C@H](OC(=O)/C=C/[C@@H](C)C[C@@H](C)CC)[C@H]2O)[C@@H](C(C)=O)[C@H](C)Cc1ccccc1` gave a concentration for half-maximal inhibition (IC50) of 57 nM.

`C=C(CC[C@]12O[C@H](c3nnc(S)n3C)[C@@](O)(C(=O)O)[C@](C(=O)O)(O1)[C@H](OC(=O)/C=C/[C@@H](C)C[C@@H](C)CC)[C@H]2O)[C@@H](C(C)=O)[C@H](C)Cc1ccccc1` had an IC50 of 172 nM. The same measure for `C=C(CC[C@]12O[C@H](c3cnc[nH]3)[C@@](O)(C(=O)O)[C@](C(=O)O)(O1)[C@H](O)[C@H]2O)[C@@H](C(C)=O)[C@H](C)Cc1ccccc1`: 785 nM; for `C=C(CC[C@]12O[C@H](c3nnc(NC)o3)[C@@](O)(C(=O)O)[C@](C(=O)O)(O1)[C@H](O)[C@H]2O)[C@@H](C(C)=O)[C@H](C)Cc1ccccc1`: 147 nM. In turn, `C=C(CC[C@]12O[C@H](c3csc(N)n3)[C@@](O)(C(=O)O)[C@](C(=O)O)(O1)[C@H](OC(=O)/C=C/[C@@H](C)C[C@@H](C)CC)[C@H]2O)[C@@H](C(C)=O)[C@H](C)Cc1ccccc1` returned an IC50 of 63 nM.
